The values below come from article PMC6368403, “Identification of a bilirubin receptor that may mediate a component of cholestatic itch” (eLife, 2019).

The test system of one test is mice. The test is described as follows: Cheek injection model: scratching bouts and wiping. Format: in vivo, mouse. The following applies: injected into cheek: 1.3 mM deoxycholic acid, 4 mM LPA. The protocol:
All applicable behavioral tests were performed and analysed with the experimenter blind to genotype. […] There were no significant differences in itch between male and female mice. […] On the day before the experiment, animals were placed in the test chamber for 30 min before being subjected to a series of three mock injections with 5 min break periods in between. On the day of the experiment, animals were first allowed to acclimatize to the test chamber for 10 min before injection. […] A bout of scratching was defined as a continuous scratching movement with either hindpaw directed at the area of the injection site. In the cheek injection model, a wipe was defined as a single forepaw stroking the site of the injection. Use of both forepaws on the face or cheek was considered as grooming behavior. […] For H1R block, 30 mg/kg of cetirizine HCl (pH 7.4) was given intraperitoneally thirty minutes prior to injection of bilirubin. Licking behavior was quantified in seconds and identified as the licking of the toes or footpad of the hind paw site of injection that was neither preceded nor followed by licking of any other portion of the body.

Test [1] concerns the target T1, MRGPRC11 (Mus musculus, UniProt Q8CIP3).
T1 construct: expressed in transfected cells
T1 sequence (Q8CIP3 1-322): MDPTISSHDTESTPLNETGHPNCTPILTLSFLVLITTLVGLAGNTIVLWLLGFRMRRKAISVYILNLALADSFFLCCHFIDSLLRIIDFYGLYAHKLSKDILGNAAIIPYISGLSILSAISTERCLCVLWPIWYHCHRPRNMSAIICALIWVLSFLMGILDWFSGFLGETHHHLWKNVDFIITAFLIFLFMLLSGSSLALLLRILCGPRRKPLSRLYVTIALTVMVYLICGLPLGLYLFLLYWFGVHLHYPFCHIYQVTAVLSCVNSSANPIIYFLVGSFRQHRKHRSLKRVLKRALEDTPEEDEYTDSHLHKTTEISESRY
The test is described as follows: Ca2+ imaging and concentration-Ca2+ response in HEK293 cells expressing MRGPRC11. The following applies: three replicates, Fig 2-N. It counts as cell-based. The method, then:
(§1) All cultured cells were maintained in DMEM supplemented with 10% FBS and 1% Penicillin/Streptomycin at 37°C, 5% CO2. All data included were generated from cells tested for mycoplasma and found to be negative. Cells were imaged in calcium imaging buffer (CIB; 10 mM HEPES, 1.2 mM NaHCO3, 130 mM NaCl, 3 mM KCl, 2.5 mM CaCl2, 0.6 mM MgCl2, 20 mM glucose, and 20 mM sucrose at pH 7.4 and 290–300 mOsm). To monitor changes in intracellular [Ca^2+] ([Ca^2+]i), cells were loaded with either Fura 2-AM (HEK293 cells) or Fluo 4-AM (DRG neurons and mast cells) for 30 min in the dark at 37°C in CIB just prior to imaging. With Fura 2-AM, emission at 510 nm was monitored from excitation at both 340 nm and 380 nm. With Fluo 4-AM, emission at 520 nm was monitored from excitation at 488 nm. Cells were identified as responding if the intracellular [Ca^2+] rose by either 50% compared to baseline or 50% compared to the [Ca^2+]i change assayed during addition of 50 mM KCl (neurons only). Damaged, detached, high-baseline, and motion-activated cells were excluded from analysis.
In initial screens, HEK293 cells stably expressing the murine G-protein alpha-subunit Gα15, a unique Gα protein that non-selectively couples a large variety of GPCRs to phospholipase C ^30, were plated on poly-D-lysine-coated coverslips and transiently transfected with constructs encoding the MRGRPR of interest. 12–24 hr later, cells were loaded with the Fura 2-AM. Unless otherwise specified, compounds were perfused into the imaging chamber for approximately thirty seconds after a baseline period was established. Response was then monitored at 5 s intervals for an additional 60 s.
HEK293 cells stably expressing either MRGPRA1, MRGPRX4, and MRGRPC11 were seeded in poly-D-lysine-coated 96-well plates at 10,000 cells/well. Cells were loaded with Fura 2–AM, washed twice, and maintained in CIB. Haem metabolites were freshly dissolved in DMSO in dim light and then diluted into a buffer comprised of 20 mM Tris and 150 mM NaCl at pH 8.8. Potential changes in pH were evaluated prior to each experiment. EC50 values were determined from dose-responses performed in triplicate, repeated 2–4 times. To determine potential antagonism by QWF against bilirubin, cells were treated with varying doses of QWF for 1 min in CIB prior to application of agonist.
HEK293 stable cell lines expressing GFP-tagged MRGPRA3, MRGPRC11, MRGPRD, MRGPRX1, and MRGPRX2 were generated in previously described reports ([Liu et al., 2009]; [Liu et al., 2012]; [McNeil et al., 2015]). Briefly, plasmids containing the receptor of interest were transfected into HEK cells using Lipofectamine 3000. After 3 days, cells were then selected using 0.5 mg/mL G418. After 3 weeks, monoclonal colonies were established and each the highest expressing clones were identified. For this study, Mrgpra1 and MRGPRX4 were inserted into pEGFP-N1 and transfected into HEK293 cells. MRGPR-positive cells were selected using 0.5 mg/mL G418 for three weeks, after which GFP-positive cells were sorted by FACS and monoclonally expanded. Two lines expressing similar levels of MRGPRA1 and MRGPRX4, as measured by GFP fluorescence, were selected for study.

For test [2], the target named is T1, MRGPRC11. The test is described as follows: Microscale thermophoresis binding to MRGPRC11. Particulars: mean of n=3, Fig 2-O. The method, then:
Binding isotherms for MRGPRA1, MRGPRX4, and MRGRPC11 towards various ligands were determined by microscale thermophoresis with the NanoTemper monolith NT.115 instrument ([Duhr and Braun, 2006]). Ligands were pre-incubated with 10 µM of the GFP-tagged receptor of interest for 5 min at room temperature in binding buffer (20 mM Tris and 150 mM NaCl at pH 8.8). Receptors were crudely purified as a membrane fraction from cells stably expressing the receptor ([Vasavda et al., 2017]). Haem metabolites were freshly dissolved in 0.1 M NaOH in dim light and then diluted into assay buffer. Lyophilized BAM8-22 was dissolved in binding buffer. The pH of each ligand was evaluated prior to incubation with a receptor. Samples were loaded into NT.115 Hydrophobic-Treated Capillaries from NanoTemper. Microscale thermophoretic experiments were executed using 20% LED power and 15% MST power. KDs were calculated using the law of mass action with data from three independent experiments. Binding between bilirubin and receptors was evaluated purely thermophoretically, whereas binding between BAM8-22 and MRGPRC11 was evaluated by T-Jump. Samples with dramatic deviations in initial fluorescence were excluded.
On the technique in general: MST reads how a fluorescent partner responds to local heating, with and without ligand.

The subject of another test is DRG neurons. The test is described as follows: Ca2+ imaging of cultured DRG neurons. It counts as cell-based, mouse. The method, then:
as §1, with “All data included were generated from cells tested for mycoplasma and found to be negative.” left out
DRGs were incubated with Fluo-4 AM 24 hr after dissociation (native genotype) or 48 hr after dissociation (virally transduced). Unless otherwise noted, cells were imaged for 20 seconds to establish a baseline before compounds were added. After 30 s, a 2 min wash was applied before addition of another substances. At the end of every imaging trial, 50 mM KCl was added as a positive control. […] For ruthenium red inhibitor experiments, neurons were incubated with 10 µM ruthenium red for 5 min prior to imaging. Percentage activated was determined as earlier described.
DRG neurons from all spinal levels were collected in cold DH10 media (90% Dulbecco’s modified Eagle’s medium (DMEM)/F-12, 10% FBS, penicillin (100 U/mL), and streptomycin (100 μg/mL)). DRGs were digested with a dispase (5 mg/ml)/collagenase type I (1 mg/ml) enzyme mixture at 37°C for 45 min. After trituration, cells were spun at 300 g and re-suspended in DH10 before being plated on glass coverslips coated with poly-D-lysine (0.5 mg/ml) and laminin (10 μg/ml, Invitrogen). DRGs were cultured with DH10 supplemented with 50 ng/mL NGF at 37°C.

“And” between values parts separate entries of the source, which are not always exact repeats. Equal values may be shown once.

Take “lysophosphatidic acid [LPA, reference compound]”: the “Scratching in WT versus Mrgpr-cluster KO animals” value in the test on mice was “equivalent degrees of scratching in WT and Mrgpr-cluster KO animals”.
Regarding BAM8-22 [reference compound], the “Ca2+ response (concentration-Ca2+ response curve), replicate values” is 1.675 (2×) and 1.799 on MRGPRC11 [1] ([Ligand] 1.95313e-7 M); 1.633 and 1.596 and 1.826 at MRGPRC11 [1] ([Ligand] 3.90625e-7 M); 1.6619 and 1.688 and 1.837 on MRGPRC11 [1] ([Ligand] 7.8125e-7 M); 1.91 and 1.851 and 1.839 on MRGPRC11 [1] ([Ligand] 1.5625e-6 M); 2.508 and 1.957 and 1.844 on MRGPRC11 [1] ([Ligand] 3.125e-6 M); 2.578 and 3.436 and 2.313 at MRGPRC11 [1] ([Ligand] 6.25e-6 M). Moreover, the “Ca2+ response (concentration-Ca2+ response curve), replicate values” on MRGPRC11 [1] ([Ligand] 1.25e-5 M) is 4.631 and 2.839 and 3.888; on MRGPRC11 [1] ([Ligand] 2.5e-5 M), 3.332 and 3.664 and 3.933. Further, the “microscale thermophoresis response (binding isotherm), mean” value is on record as 0.2221 at MRGPRC11 [2] ([Ligand] 4.88e-8 M); 0.7996 at MRGPRC11 [2] ([Ligand] 9.77e-8 M); 0.1618 on MRGPRC11 [2] ([Ligand] 1.953e-7 M); -0.3098 on MRGPRC11 [2] ([Ligand] 3.906e-7 M); -0.7916 at MRGPRC11 [2] ([Ligand] 7.813e-7 M); -0.6624 on MRGPRC11 [2] ([Ligand] 1.5625e-6 M). Further, the “microscale thermophoresis response (binding isotherm), mean” value at MRGPRC11 [2] ([Ligand] 3.125e-6 M) is on record as -0.9001; at MRGPRC11 [2] ([Ligand] 6.25e-6 M), -0.5948; on MRGPRC11 [2] ([Ligand] 1.25e-5 M), -2.488; at MRGPRC11 [2] ([Ligand] 2.5e-5 M), -2.079; on MRGPRC11 [2] ([Ligand] 5e-5 M), -2.779; at MRGPRC11 [2] ([Ligand] 0.0001 M), -3.797.
As for `N.N.N.N.N.N.N.N.N.N.N.N.N.N.[Cl-].[Cl-].[Cl-].[Cl-].[Cl-].[Cl-].[O-2].[O-2].[Ru+3].[Ru+3].[Ru+4]` [ruthenium red, reference compound], the “Effect on activation of sensory neurons by bilirubin” value in the test on DRG neurons (10 µM ruthenium red, 50 µM bilirubin) was “prevented bilirubin from activating sensory neurons”. Moreover, in the test with DRG neurons (WT neurons incubated with 10 µM ruthenium red (Fig 4G)), the “Percent activated neurons by 50 µM bilirubin” value was 0.73%.
In the case of `C[C@H](CCC(=O)O)[C@H]1CC[C@H]2[C@@H]3CC[C@@H]4C[C@H](O)CC[C@]4(C)[C@H]3C[C@H](O)[C@]12C` [deoxycholic acid, reference compound], the “Scratching in WT versus Mrgpr-cluster KO animals” value with mice was “equivalent degrees of scratching in WT and Mrgpr-cluster KO animals”.
